From ChEMBL document CHEMBL1149597, “Structure-activity relationships of semisynthetic mumbaistatin analogs” (Bioorg Med Chem, 2007)
Calls of active or inactive are those of the source. No cut-off for these calls is given here.

System: Hepatocyte
Assay: Inhibition of glucagon-stimulated glucose production in rat hepatocytes at 280 uM
Type: functional

| SMILES | inhibition at 280 µM [%] |
| --- | --- |
| COc1cc2c(c(/C=C/c3cccc4ccccc34)c1C(=O)O)C(=O)c1c(O)cccc1C2=O | 40 |

Biological target: T1, Glucose-6-phosphate exchanger SLC37A4 (Homo sapiens, UniProt O43826)
T1 sequence (O43826 whole entry): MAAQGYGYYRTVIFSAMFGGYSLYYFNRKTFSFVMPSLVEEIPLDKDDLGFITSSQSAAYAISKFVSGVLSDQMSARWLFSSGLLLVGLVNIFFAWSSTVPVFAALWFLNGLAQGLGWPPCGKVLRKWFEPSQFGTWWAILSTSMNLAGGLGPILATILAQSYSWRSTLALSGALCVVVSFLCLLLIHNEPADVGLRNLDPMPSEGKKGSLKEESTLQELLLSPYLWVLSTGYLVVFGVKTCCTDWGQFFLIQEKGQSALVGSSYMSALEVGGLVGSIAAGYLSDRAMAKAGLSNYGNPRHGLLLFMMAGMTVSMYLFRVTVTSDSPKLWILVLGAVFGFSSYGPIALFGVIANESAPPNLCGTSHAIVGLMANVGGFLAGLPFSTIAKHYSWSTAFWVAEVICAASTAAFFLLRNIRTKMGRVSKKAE
Assay: (§1) Inhibition of glucose 6 phosphate translocase 1

| IC50 [µM] | SMILES |
| --- | --- |
| 200 | CCC(C)CCc1c(C(=O)O)c(O)cc2c1C(=O)c1c(O)cccc1C2=O (centres undefined) |
| 20 | C=CCCOc1ccccc1/C=C/c1c(C(=O)O)c(OC)cc2c1C(=O)c1c(OC)cccc1C2=O |
| 0.005 | O=C(O)CC(O)CCC(=O)c1cccc(O)c1C(=O)c1c(C(=O)O)c(O)cc2c1C(=O)c1c(O)cccc1C2=O (centres undefined) [MUMBAISTATIN] |
| 12.5 | CC/C=C/c1c(C(=O)O)c(OC)cc2c1C(=O)c1c(O)cccc1C2=O |
| 50 | COc1cc2c(c(CSc3ccccc3)c1C(=O)O)C(=O)c1c(O)cccc1C2=O |
| 100 | CCCCc1c(C(=O)O)c(O)cc2c1C(=O)c1c(O)cccc1C2=O |
| 2.5 | COc1cc2c(c(/C=C/c3cccc4ccccc34)c1C(=O)O)C(=O)c1c(O)cccc1C2=O |
| 50 | CCCCCC/C=C/c1c(C(=O)O)c(OC)cc2c1C(=O)c1c(O)cccc1C2=O |
| 50 | C=C(c1cccc(O)c1C(=O)O)c1c(O)cccc1C(CCCCC)OC (centres undefined) |
| 5 | O=C1c2cccc(O)c2C(=O)c2c1cc(O)c1c2CC(c2cccc3ccccc23)OC1=O (centres undefined) |
| 20 | COc1cc2c(c(Cc3ccccc3)c1C(=O)O)C(=O)c1c(O)cccc1C2=O |
| 2.5 | COc1cc2c(c(/C=C/c3ccccc3)c1C(=O)O)C(=O)c1c(O)cccc1C2=O |

Biological target: T2, Glucose-6-phosphate exchanger SLC37A4 (Homo sapiens) (UniProt O43826)
T2 sequence (whole entry): T1 sequence (O43826 whole entry)
Assay: as §1

| Activity | SMILES |
| --- | --- |
| inactive | Cc1c(C(=O)O)c(O)cc2c1C(=O)c1c(O)cccc1C2=O |
